Laboratory results from ChEMBL document CHEMBL1955806, “Design, synthesis, single-crystal and preliminary antitumor activity of novel arenesulfonylimidazolidin-2-ones” (2012).

Legend:
Type in all cases: functional
[1] = system: A549; experiment: Growth inhibition of human A549/ATCC cells at 10 uM after 48 hrs by sulforhodamine B assay; details: A549, 48 h, read-out: GI
[2] = system: HOP-92; experiment: Growth inhibition of human HOP92 cells at 10 uM after 48 hrs by sulforhodamine B assay; details: HOP-92, 48 h, read-out: GI
[3] = system: NCI-H226; experiment: Growth inhibition of human NCI-H226 cells at 10 uM after 48 hrs by sulforhodamine B assay; details: NCI-H226, 48 h, read-out: GI
[4] = system: NCI-H23; experiment: Growth inhibition of human NCI-H23 cells at 10 uM after 48 hrs by sulforhodamine B assay; details: NCI-H23, 48 h, read-out: GI
[5] = system: NCI-H522; experiment: Growth inhibition of human NCI-H522 cells at 10 uM after 48 hrs by sulforhodamine B assay; details: NCI-H522, 48 h, read-out: GI
[6] = system: COLO 205; experiment: Growth inhibition of human COLO205 cells at 10 uM after 48 hrs by sulforhodamine B assay; details: COLO 205, 48 h, read-out: GI
[7] = system: HCT-116; experiment: Growth inhibition of human HCT116 cells at 10 uM after 48 hrs by sulforhodamine B assay; details: HCT-116, 48 h, read-out: GI
[8] = system: HCT-15; experiment: Growth inhibition of human HCT15 cells at 10 uM after 48 hrs by sulforhodamine B assay; details: HCT-15, 48 h, read-out: GI
[9] = system: KM12; experiment: Growth inhibition of human KM12 cells at 10 uM after 48 hrs by sulforhodamine B assay; details: KM12, 48 h, read-out: GI
[10] = system: SW-620; experiment: Growth inhibition of human SW620 cells at 10 uM after 48 hrs by sulforhodamine B assay; details: SW-620, 48 h, read-out: GI
[11] = system: Hs-578T; experiment: Growth inhibition of human Hs578T cells at 10 uM after 48 hrs by sulforhodamine B assay; details: read-out: GI
[12] = system: MCF7; experiment: Growth inhibition of human MCF7 cells at 10 uM after 48 hrs by sulforhodamine B assay; details: MCF7, 48 h, read-out: GI
[13] = system: MDA-MB-468; experiment: Growth inhibition of human MDA-MB-468 cells at 10 uM after 48 hrs by sulforhodamine B assay; details: MDA-MB-468, 48 h, read-out: GI
[14] = system: IGROV-1; experiment: Growth inhibition of human IGROV1 cells at 10 uM after 48 hrs by sulforhodamine B assay; details: IGROV-1, 48 h, read-out: GI
[15] = system: OVCAR-4; experiment: Growth inhibition of human OVCAR4 cells at 10 uM after 48 hrs by sulforhodamine B assay; details: OVCAR-4, 48 h, read-out: GI
[16] = system: OVCAR-8; experiment: Growth inhibition of human OVCAR8 cells at 10 uM after 48 hrs by sulforhodamine B assay; details: OVCAR-8, 48 h, read-out: GI
[17] = system: DU-145; experiment: Growth inhibition of human DU145 cells at 10 uM after 48 hrs by sulforhodamine B assay; details: DU-145, 48 h, read-out: GI
[18] = system: PC-3; experiment: Growth inhibition of human PC3 cells at 10 uM after 48 hrs by sulforhodamine B assay; details: PC-3, 48 h, read-out: GI
[19] = system: HL-60(TB); experiment: Growth inhibition of human HL-60(TB) cells at 10 uM after 48 hrs by sulforhodamine B assay; details: HL-60, 48 h, read-out: GI
[20] = system: K562; experiment: Growth inhibition of human K562 cells at 10 uM after 48 hrs by sulforhodamine B assay; details: K562, 48 h, read-out: GI
[21] = system: MOLT-4; experiment: Growth inhibition of human MOLT4 cells at 10 uM after 48 hrs by sulforhodamine B assay; details: MOLT-4, 48 h, read-out: GI
[22] = system: RPMI-8226; experiment: Growth inhibition of human RPMI8226 cells at 10 uM after 48 hrs by sulforhodamine B assay; details: RPMI-8226, 48 h, read-out: GI
[23] = system: 786-0; experiment: Growth inhibition of human 786-0 cells at 10 uM after 48 hrs by sulforhodamine B assay; details: 786-0, 48 h, read-out: GI
[24] = system: A498; experiment: Growth inhibition of human A498 cells at 10 uM after 48 hrs by sulforhodamine B assay; details: A498, 48 h, read-out: GI
[25] = system: ACHN; experiment: Growth inhibition of human ACHN cells at 10 uM after 48 hrs by sulforhodamine B assay; details: read-out: GI
[26] = system: SN12C; experiment: Growth inhibition of human SN12C cells at 10 uM after 48 hrs by sulforhodamine B assay; details: read-out: GI
[27] = system: TK-10; experiment: Growth inhibition of human TK10 cells at 10 uM after 48 hrs by sulforhodamine B assay; details: TK-10, 48 h, read-out: GI
[28] = system: UO-31; experiment: Growth inhibition of human UO31 cells at 10 uM after 48 hrs by sulforhodamine B assay; details: UO-31, 48 h, read-out: GI
[29] = system: LOX IMVI; experiment: Growth inhibition of human LOXIMVI cells at 10 uM after 48 hrs by sulforhodamine B assay; details: read-out: GI
[30] = system: M14; experiment: Growth inhibition of human M14 cells at 10 uM after 48 hrs by sulforhodamine B assay; details: M14, 48 h, read-out: GI
[31] = system: Malme-3M; experiment: Growth inhibition of human MALME-3M cells at 10 uM after 48 hrs by sulforhodamine B assay; details: read-out: GI
[32] = system: SK-MEL-2; experiment: Growth inhibition of human SK-MEL-2 cells at 10 uM after 48 hrs by sulforhodamine B assay; details: SK-MEL-2, 48 h, read-out: GI
[33] = system: SK-MEL-28; experiment: Growth inhibition of human SK-MEL-28 cells at 10 uM after 48 hrs by sulforhodamine B assay; details: SK-MEL-28, 48 h, read-out: GI
[34] = system: SK-MEL-5; experiment: Growth inhibition of human SK-MEL-5 cells at 10 uM after 48 hrs by sulforhodamine B assay; details: SK-MEL-5, 48 h, read-out: GI
[35] = system: UACC-257; experiment: Growth inhibition of human UACC257 cells at 10 uM after 48 hrs by sulforhodamine B assay; details: UACC-257, 48 h, read-out: GI
[36] = system: SF-268; experiment: Growth inhibition of human SF268 cells at 10 uM after 48 hrs by sulforhodamine B assay; details: SF-268, 48 h, read-out: GI
[37] = system: SF-295; experiment: Growth inhibition of human SF295 cells at 10 uM after 48 hrs by sulforhodamine B assay; details: SF-295, 48 h, read-out: GI
[38] = system: SNB-19; experiment: Growth inhibition of human SNB19 cells at 10 uM after 48 hrs by sulforhodamine B assay; details: SNB-19, 48 h, read-out: GI
[39] = system: SNB-75; experiment: Growth inhibition of human SNB75 cells at 10 uM after 48 hrs by sulforhodamine B assay; details: SNB-75, 48 h, read-out: GI
[40] = system: U-251; experiment: Growth inhibition of human U251 cells at 10 uM after 48 hrs by sulforhodamine B assay; details: U-251, 48 h, read-out: GI

Q: How did the inhibition of growth at 10 µM [1] turn out when CO[C@@H]1[C@@H](OC)N(S(=O)(=O)c2ccc(Cl)cc2)C(=O)N1S(=O)(=O)c1ccc(Cl)cc1 (relative stereo) was run?
A: 21.7%

Q: What about the inhibition of growth at 10 µM [2] of the same molecule?
A: 49.9%

Q: And the inhibition of growth at 10 µM [3]?
A: 4.24%

Q: And the inhibition of growth at 10 µM [4]?
A: 8.09%

Q: And the inhibition of growth at 10 µM [5]?
A: 26.7%

Q: What about the inhibition of growth at 10 µM [6] of the same molecule?
A: -3.4%

Q: And the inhibition of growth at 10 µM [7]?
A: 33.1%

Q: And the inhibition of growth at 10 µM [8]?
A: 19.8%

Q: And the inhibition of growth at 10 µM [9]?
A: 3.47%

Q: And the inhibition of growth at 10 µM [10]?
A: 1.4%

Q: What about the inhibition of growth at 10 µM [11] of the same molecule?
A: -4.94%

Q: What about the inhibition of growth at 10 µM [12] of the same molecule?
A: 16%

Q: And the inhibition of growth at 10 µM [13]?
A: 6.61%

Q: And the inhibition of growth at 10 µM [14]?
A: 23.1%

Q: What about the inhibition of growth at 10 µM [15] of the same molecule?
A: 21.3%

Q: What about the inhibition of growth at 10 µM [16] of the same molecule?
A: 9.39%

Q: And the inhibition of growth at 10 µM [17]?
A: -9.28%

Q: What about the inhibition of growth at 10 µM [18] of the same molecule?
A: 29.8%

Q: And the inhibition of growth at 10 µM [19]?
A: 3.82%

Q: What about the inhibition of growth at 10 µM [20] of the same molecule?
A: 23.2%

Q: What about the inhibition of growth at 10 µM [21] of the same molecule?
A: 43.5%

Q: What about the inhibition of growth at 10 µM [22] of the same molecule?
A: 21.9%

Q: And the inhibition of growth at 10 µM [23]?
A: 16.8%

Q: And the inhibition of growth at 10 µM [24]?
A: 4.59%

Q: And the inhibition of growth at 10 µM [25]?
A: 9.71%

Q: What about the inhibition of growth at 10 µM [26] of the same molecule?
A: 14.4%

Q: And the inhibition of growth at 10 µM [27]?
A: 7.51%

Q: And the inhibition of growth at 10 µM [28]?
A: 39.4%

Q: And the inhibition of growth at 10 µM [29]?
A: 5.58%

Q: And the inhibition of growth at 10 µM [30]?
A: 6.23%

Q: What about the inhibition of growth at 10 µM [31] of the same molecule?
A: 6.65%

Q: And the inhibition of growth at 10 µM [32]?
A: 13.1%

Q: What about the inhibition of growth at 10 µM [33] of the same molecule?
A: -7.4%

Q: What about the inhibition of growth at 10 µM [34] of the same molecule?
A: -2.95%

Q: What about the inhibition of growth at 10 µM [35] of the same molecule?
A: -11.6%

Q: And the inhibition of growth at 10 µM [36]?
A: 1.84%

Q: And the inhibition of growth at 10 µM [37]?
A: 34%

Q: What about the inhibition of growth at 10 µM [38] of the same molecule?
A: 2.72%

Q: And the inhibition of growth at 10 µM [39]?
A: 19.7%

Q: And the inhibition of growth at 10 µM [40]?
A: 6.07%
